Data published in patent publication US20240366542A1, “S[…] SEROTONIN RECEPTORS” (ATAI Therapeutics, Inc., priority 2022, published 2024).

Tests used:
Type in all cases: cell-based
[1] = target: T1, 5-HT2A receptor (Homo sapiens, UniProt P28223); experiment: Calcium mobilization (Ca++ flux) assay, agonist mode, 5-HT2A; settings: for 5-HT2A receptor, Ca++ Flux % activation @30 μM: 30 μM compound, relative to MAX control 0.1 μM serotonin; for EC50: agonist mode, FLIPR calcium mobilization
Method: (§1) The Calcium No-Wash^PLUS assay monitors the activation of a GPCR via Gq secondary messenger signaling in a live cell, non-imaging assay format. Calcium mobilization in PathHunter® cell lines or other cell lines stably expressing Gq-coupled GPCRs is monitored using a calcium-sensitive dye that is loaded into cells. GPCR activation by a compound result in the release of calcium from intracellular stores and an increase in dye fluorescence that is measured in real-time. Cell lines expressing the GPCR of interest were expanded from freezer stocks according to standard procedures. Cells were seeded in a total volume of 20 μL into black-walled, clear-bottom, Poly-D-lysine coated 384-well microplates and incubated at 37° C. for the appropriate time prior to testing. Assays were performed in 1×Dye Loading Buffer consisting of 1× Dye, 1× Additive A and 2.5 mM Probenecid in HBSS/20 mM Hepes. Probenicid was prepared fresh. Cells were loaded with dye prior to testing. Media was aspirated from cells and replaced with 20 μL Dye Loading Buffer. Cells were incubated for 30-60 minutes at 37° C. For agonist determination, cells were incubated with sample to induce response. After dye loading, cells were removed from the incubator and 10 μL HBSS/20 mM Hepes was added. 3× vehicle was included in the buffer when performing agonist dose curves to define the EC80 for subsequent antagonist assays. Cells were incubated for 30 minutes at room temperature in the dark to equilibrate plate temperature. Intermediate dilution of sample stocks was performed to generate 4× sample in assay buffer. Compound agonist activity was measured on a FLIPR Tetra (MDS). Calcium mobilization was monitored for 2 minutes and 10 μL 4× sample in HBSS/20 mM Hepes was added to the cells 5 seconds into the assay. Compound activity data was analyzed using CBIS data analysis suite (ChemInnovation, CA). For agonist mode assays, percentage activity is calculated using the following formula:
% Activity=100%×(mean RFU of test sample−mean RFU of vehicle control)/(mean MAX RFU control ligand−mean RFU of vehicle control).
In these studies, the MAX RFU was generated by using 0.1 μM serotonin for the calcium mobilization assay.

[2] = target: T1, 5-HT2A receptor; experiment: PathHunter β-Arrestin assay, agonist mode, 5-HT2A
Method: The PathHunter® β-Arrestin assay monitors the activation of a GPCR in a homogenous, non-imaging assay format using a technology developed by DiscoverX called Enzyme Fragment Complementation (EFC) with β-galactosidase (β-Gal) as the functional reporter. […] EA is fused to β-Arrestin and PK is fused to the GPCR of interest. When the GPCR is activated and β-Arrestin is recruited to the receptor, ED and EA complementation occurs, restoring β-Gal activity which is measured using chemiluminescent PathHunter® Detection Reagents. PathHunter cell lines (DiscoveRx Eurofins) were expanded from freezer stocks according to standard procedures. Cells were seeded in a total volume of 20 μL into white walled, 384-well microplates and incubated at 37° C. for the appropriate time prior to testing. For agonist determination, cells were incubated with sample to induce response. Intermediate dilution of sample stocks was performed to generate 5× sample in assay buffer. 5 μL of 5× sample was added to cells and incubated at 37° C. or room temperature for 90 to 180 minutes. Vehicle concentration was 1%. β-Arrestin assay signal was generated through a single addition of 12.5 or 15 μL (50% v/v) of PathHunter Detection reagent cocktail, followed by a one-hour incubation at room temperature. Microplates were read following signal generation with a PerkinElmer Envision™ instrument for chemiluminescent signal detection. Compound activity was analyzed using CBIS data analysis suite (ChemInnovation, CA). For agonist mode assays, percentage activity was calculated using the following formula:
% Activity=100%×(mean RLU of test sample−mean RLU of vehicle control)/(mean MAX control ligand−mean RLU of vehicle control).
In these studies, the MAX control ligand response was generated using 1-10 μM serotonin.

[3] = target: 5-HT2B receptor (Homo sapiens, UniProt P41595); experiment: Calcium mobilization (Ca++ flux) assay, agonist mode, 5-HT2B
5-HT2B receptor, sequence (P41595 whole entry): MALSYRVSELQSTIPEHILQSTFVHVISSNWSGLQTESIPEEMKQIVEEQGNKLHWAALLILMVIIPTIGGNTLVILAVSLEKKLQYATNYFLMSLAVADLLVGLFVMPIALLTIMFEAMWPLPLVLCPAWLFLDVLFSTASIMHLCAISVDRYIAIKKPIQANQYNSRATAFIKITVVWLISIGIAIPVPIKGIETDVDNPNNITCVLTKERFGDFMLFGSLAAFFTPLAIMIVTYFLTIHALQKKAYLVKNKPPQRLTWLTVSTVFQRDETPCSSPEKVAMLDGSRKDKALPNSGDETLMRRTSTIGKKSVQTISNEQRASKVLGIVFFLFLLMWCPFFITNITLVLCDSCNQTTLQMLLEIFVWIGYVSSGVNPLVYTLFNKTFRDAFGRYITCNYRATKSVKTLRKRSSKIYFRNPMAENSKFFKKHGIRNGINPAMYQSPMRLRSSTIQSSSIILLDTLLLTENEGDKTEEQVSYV
Method: as §1, with “Media was aspirated from cells and replaced with 20 μL Dye Loading Buffer. Cells were incubated for 30-60 minutes at 37° C. For agonist determination, cells were incubated with sample to induce response. After dye loading, cells were removed from the incubator and 10 μL HBSS/20 mM Hepes was added. 3× vehicle was included in the buffer when performing agonist dose curves to define the EC80 for subsequent antagonist assays. Cells were incubated for 30 minutes at room temperature in the dark to equilibrate plate temperature. Intermediate dilution of sample stocks was performed to generate 4× sample in assay buffer.” left out, “formula: […]” for “formula:”

[4] = target: T2, 5-HT2C receptor (Homo sapiens, UniProt P28335); experiment: Calcium mobilization (Ca++ flux) assay, agonist mode, 5-HT2C
T2 sequence (P28335 33-458): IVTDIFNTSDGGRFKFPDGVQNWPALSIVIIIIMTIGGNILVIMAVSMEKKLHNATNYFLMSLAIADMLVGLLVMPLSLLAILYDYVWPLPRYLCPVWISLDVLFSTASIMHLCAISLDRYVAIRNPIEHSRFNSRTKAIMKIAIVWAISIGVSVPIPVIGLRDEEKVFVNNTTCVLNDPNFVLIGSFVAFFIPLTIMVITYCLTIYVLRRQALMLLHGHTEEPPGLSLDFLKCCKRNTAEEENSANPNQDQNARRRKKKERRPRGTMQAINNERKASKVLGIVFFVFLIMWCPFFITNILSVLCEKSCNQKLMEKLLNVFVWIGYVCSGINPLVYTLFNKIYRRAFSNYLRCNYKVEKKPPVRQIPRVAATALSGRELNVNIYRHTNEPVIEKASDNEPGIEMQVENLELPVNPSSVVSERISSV
Method: as §1, with “Media was aspirated from cells and replaced with 20 μL Dye Loading Buffer. Cells were incubated for 30-60 minutes at 37° C. For agonist determination, cells were incubated with sample to induce response. After dye loading, cells were removed from the incubator and 10 μL HBSS/20 mM Hepes was added. 3× vehicle was included in the buffer when performing agonist dose curves to define the EC80 for subsequent antagonist assays. Cells were incubated for 30 minutes at room temperature in the dark to equilibrate plate temperature. Intermediate dilution of sample stocks was performed to generate 4× sample in assay buffer.” left out, “formula: […]” for “formula:”

T1 sequence (P28223 whole entry): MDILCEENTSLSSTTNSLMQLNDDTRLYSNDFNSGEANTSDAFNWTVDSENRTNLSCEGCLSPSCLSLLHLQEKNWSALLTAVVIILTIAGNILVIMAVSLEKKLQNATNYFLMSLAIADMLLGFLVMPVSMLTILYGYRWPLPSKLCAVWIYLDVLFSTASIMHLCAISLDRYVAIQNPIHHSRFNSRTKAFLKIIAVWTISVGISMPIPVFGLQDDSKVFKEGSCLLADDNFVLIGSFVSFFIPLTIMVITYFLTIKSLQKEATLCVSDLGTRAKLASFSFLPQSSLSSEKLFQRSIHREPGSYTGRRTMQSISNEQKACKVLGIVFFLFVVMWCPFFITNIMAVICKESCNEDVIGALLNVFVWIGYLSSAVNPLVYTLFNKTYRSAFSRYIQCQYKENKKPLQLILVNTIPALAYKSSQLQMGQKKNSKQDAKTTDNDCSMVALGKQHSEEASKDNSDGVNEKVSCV

| SMILES | 5-HT2A receptor, Ca++ Flux % activation @30 μM [1] | EC50 [2] | EC50 [3] | EC50 [1] | EC50 [4] |
| --- | --- | --- | --- | --- | --- |
| COc1cc(S(C)(=N)=O)c(OC)cc1CCNCc1cc(C)cc(Cl)c1 (single isomer, unassigned) [Compound 2, (4-(2-((3-chloro-5-methylbenzyl)amino)ethyl)-2,5-dimethoxyphenyl)(imino)(methyl)-λ^6-sulfanone] | NA/57% | – | – | – | – |
| COc1cc(S(C)(=N)=O)c(OC)cc1CCNCc1cc(C)cc(Cl)c1 (single isomer, unassigned) [Compound 3, (4-(2-((3-chloro-5-methylbenzyl)amino)ethyl)-2,5-dimethoxyphenyl)(imino)(methyl)-λ^6-sulfanone] | 78% | 13.6 nM | > 1000 nM | 2.4 nM | 1490 nM |
| COc1cc(S(C)(=N)=O)c(OC)cc1CCNCc1cc(C)cc(Cl)c1 (stereo not shown) [Compound 1, (4-(2-((3-chloro-5-methylbenzyl)amino)ethyl)-2,5-dimethoxyphenyl)(imino)(methyl)-λ^6-sulfanone] | 102% | 25 nM | > 1000 nM | 4.1 nM | – |
| COc1cc(S(C)(=N)=O)c(OC)cc1CCNCc1cc(C)cc(Cl)n1 (stereo not shown) [Compound 4, (4-(2-(((6-chloro-4-methylpyridin-2-yl)methyl)amino)ethyl)-2,5-dimethoxyphenyl)(imino)(methyl)-λ^6-sulfanone] | NA/67% | – | – | – | – |
| COc1cc(S(C)(=N)=O)c(OC)cc1CCNCc1ccccc1OC (stereo not shown) [Compound 5, (2,5-dimethoxy-4-(2-((2-methoxybenzyl)amino)ethyl)phenyl)(imino) (methyl)-λ^6-sulfanone] | 111% | 3.2 nM | – | 1.7 nM | 3.6 nM |
| COc1cc(S(C)(=N)=O)c(OC)cc1CCNCc1ccccc1O (stereo not shown) [Compound 6, (4-(2-((2-hydroxybenzyl)amino)ethyl)-2,5-dimethoxyphenyl)(imino)(methyl)-λ^6-sulfanone] | NA/ 82% | – | – | – | – |
